For test [1], the target named is T1, human recombinant histamine H2 receptor (Homo sapiens, UniProt P25021).
T1 construct: expressed in transfected cells; host or cells: CHO-K1 cells
The test can be described thus: Histamine H2 radioligand binding ([125I]Aminopotentidine). An outline of the steps: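 Membranes of CHO-K1 cells expressing human H2 receptor incubated with 0.1 nM [125I]aminopotentidine, 120 min, 25 °C, 50 mM phosphate pH 7.4; nonspecific binding defined with 3 μM tiotidine.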

In test [2] the target is T2, human recombinant adrenergic α2B receptor (Homo sapiens, UniProt P18089).
T2 construct: expressed in transfected cells; host or cells: CHO-K1 cells
T2 sequence (P18089 1-450): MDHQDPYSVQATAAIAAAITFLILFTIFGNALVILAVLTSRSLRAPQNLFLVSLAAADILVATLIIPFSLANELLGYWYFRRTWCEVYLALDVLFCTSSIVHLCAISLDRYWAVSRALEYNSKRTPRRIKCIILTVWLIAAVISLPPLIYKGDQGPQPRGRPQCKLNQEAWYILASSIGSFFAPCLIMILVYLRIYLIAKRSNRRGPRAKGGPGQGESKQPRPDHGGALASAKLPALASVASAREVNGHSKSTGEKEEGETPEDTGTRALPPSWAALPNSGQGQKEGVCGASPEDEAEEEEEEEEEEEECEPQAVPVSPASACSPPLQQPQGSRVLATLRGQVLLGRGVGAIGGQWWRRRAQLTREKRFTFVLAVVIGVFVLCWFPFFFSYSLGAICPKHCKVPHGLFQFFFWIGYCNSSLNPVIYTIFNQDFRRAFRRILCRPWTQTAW
Kind of test: Adrenergic α2B radioligand binding ([3H]Rauwolscine). On the procedure:
To evaluate in radioligand binding assays the activity of compounds of the invention, human recombinant adrenergic α2B receptor expressed in Chinese hamster ovary (CHO-K1) cells (Uhlen S et al. Eur J. Pharmacol. 343(1):93, 1998) in a modified Tris-HCl buffer (50 mM Tris-HCl, pH 7.4, 12.5 mM MgCl2, 1 mM EDTA, 0.2% BSA) was used. Compounds of the invention were incubated with 2.5 nM [^3H]Rauwolscine for 60 minutes at 25° C. Non-specific binding was estimated in the presence of 10 μM Prozosin. Receptor proteins were filtered and washed, the filters were then counted to determine [^3H]Rauwolscine specifically bound. Compounds were screened at 1 μM or lower, using 1% DMSO as vehicle. Biochemical assay results are presented as the percent inhibition of specific binding in Table 4.

For test [3], the target named is T3, human recombinant serotonin (5-Hydroxytryptamine) 5-HT6 receptor (Homo sapiens, UniProt P50406).
T3 construct: expressed in transfected cells; host or cells: human HeLa cells
T3 sequence (P50406 whole entry): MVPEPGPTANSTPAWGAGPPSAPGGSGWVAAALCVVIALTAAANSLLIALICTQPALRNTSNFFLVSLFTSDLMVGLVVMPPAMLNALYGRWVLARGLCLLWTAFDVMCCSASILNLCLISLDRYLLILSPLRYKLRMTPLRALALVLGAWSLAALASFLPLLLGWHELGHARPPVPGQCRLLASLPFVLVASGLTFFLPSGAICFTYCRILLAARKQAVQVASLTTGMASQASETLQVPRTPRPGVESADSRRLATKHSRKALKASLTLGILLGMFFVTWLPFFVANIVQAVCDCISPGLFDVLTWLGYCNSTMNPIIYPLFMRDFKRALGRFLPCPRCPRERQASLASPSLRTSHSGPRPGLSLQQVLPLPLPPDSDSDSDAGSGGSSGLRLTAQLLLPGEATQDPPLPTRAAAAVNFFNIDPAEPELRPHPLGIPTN
The test can be described thus: Serotonin 5-HT6 radioligand binding ([3H]LSD). Summed up: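 Human 5-HT6 receptor expressed in HeLa cells, in Tris-HCl pH 7.4 with 150 mM NaCl, ascorbic acid and BSA. Compounds at 1 μM or lower (1% DMSO) incubated 120 min at 37° C with 1.5 nM [3H]LSD. Non-specific binding defined with serotonin; filter counting gives % inhibition of specific binding.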

Test [4] deals with T4, human recombinant histamine H1 receptor (Homo sapiens, UniProt P35367).
T4 construct: expressed in transfected cells; host or cells: CHO cells
T4 sequence (P35367 whole entry): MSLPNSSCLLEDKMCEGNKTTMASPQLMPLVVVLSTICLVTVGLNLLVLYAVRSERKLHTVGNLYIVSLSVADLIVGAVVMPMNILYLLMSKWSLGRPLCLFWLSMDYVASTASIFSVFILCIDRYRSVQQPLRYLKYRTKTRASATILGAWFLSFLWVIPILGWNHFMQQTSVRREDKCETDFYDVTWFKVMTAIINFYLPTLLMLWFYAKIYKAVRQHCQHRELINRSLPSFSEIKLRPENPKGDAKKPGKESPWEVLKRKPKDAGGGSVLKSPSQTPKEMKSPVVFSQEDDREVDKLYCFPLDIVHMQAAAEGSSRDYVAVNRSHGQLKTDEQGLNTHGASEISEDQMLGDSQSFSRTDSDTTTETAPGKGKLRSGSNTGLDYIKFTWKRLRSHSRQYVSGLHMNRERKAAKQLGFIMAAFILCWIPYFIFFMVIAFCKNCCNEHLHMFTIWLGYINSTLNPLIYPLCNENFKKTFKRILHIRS
The test can be described thus: Histamine H1 radioligand binding ([3H]Pyrilamine). An outline of the steps:
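Binding to the human recombinant histamine H1 receptor, expressed in CHO cells, was measured in a modified Tris-HCl buffer (50 mM Tris-HCl, pH 7.4, 2 mM MgCl2, 100 mM NaCl, 250 mM Sucrose). Compounds were incubated with 1.2 nM [3H]Pyrilamine for 180 minutes at 25° C, with 1 μM pyrilamine defining non-specific binding. After filtration and washing, filter counts gave percent inhibition of specific binding.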

The target in test [5] is T5, human recombinant serotonin (5-Hydroxytryptamine) 5-HT2A receptor (Homo sapiens, UniProt P28223).
T5 construct: expressed in transfected cells; host or cells: CHO-K1 cells
T5 sequence (P28223 whole entry): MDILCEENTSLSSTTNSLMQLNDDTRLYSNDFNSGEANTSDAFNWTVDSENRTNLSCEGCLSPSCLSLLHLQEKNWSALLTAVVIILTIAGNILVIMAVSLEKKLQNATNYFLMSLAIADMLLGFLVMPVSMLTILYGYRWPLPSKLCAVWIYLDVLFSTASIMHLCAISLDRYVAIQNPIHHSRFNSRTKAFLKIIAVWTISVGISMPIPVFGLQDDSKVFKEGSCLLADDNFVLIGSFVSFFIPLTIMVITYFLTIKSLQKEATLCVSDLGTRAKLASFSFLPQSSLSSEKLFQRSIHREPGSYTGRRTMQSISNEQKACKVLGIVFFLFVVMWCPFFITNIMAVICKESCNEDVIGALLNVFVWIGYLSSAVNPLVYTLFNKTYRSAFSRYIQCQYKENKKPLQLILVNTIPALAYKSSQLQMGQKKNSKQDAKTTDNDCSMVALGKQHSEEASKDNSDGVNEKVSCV
Kind of test: Serotonin 5-HT2A radioligand binding ([3H]Ketanserin). Summed up: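 Membranes from CHO-K1 cells expressing the receptor, in 50 mM Tris-HCl pH 7.4, incubated 60 min at 25° C with 0.5 nM [3H]Ketanserin; 1 μM Mianserin defines non-specific binding. Filtration and counting; values are % inhibition of specific binding at 1 μM or lower, 1% DMSO.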

Where [6] appears, read: 1 μM, inhibition of specific [125I]Aminopotentidine binding, read-out: Binding data (Percentage Inhibition) Histamine Binding (1 μM) H2.
The mark [7] stands for this setting: 1 h, read-out: Percent Inhibition of ligand binding Adrenergic (1 μM ligand conc.) α2B.
Setting [8] is: 2 h, read-out: Percent Inhibition of ligand binding Serotonin (1 μM ligand concentration) 5-HT6.
Setting [9] is: 1 μM, read-out: Binding data (Percentage Inhibition) Histamine Binding (1 μM) H1.
The mark [10] stands for this setting: 1 h, read-out: Percent Inhibition of ligand binding Serotonin (1 μM ligand concentration) 5-HT2A.

The source of these data is US9260429B2, “Pyrido[3,4-B]indoles and methods of use” (Medivation Technologies, Inc., priority 2008, dated 2016).

Like-named read-outs stand apart in the source and are kept apart here.

T1 sequence (P25021 whole entry): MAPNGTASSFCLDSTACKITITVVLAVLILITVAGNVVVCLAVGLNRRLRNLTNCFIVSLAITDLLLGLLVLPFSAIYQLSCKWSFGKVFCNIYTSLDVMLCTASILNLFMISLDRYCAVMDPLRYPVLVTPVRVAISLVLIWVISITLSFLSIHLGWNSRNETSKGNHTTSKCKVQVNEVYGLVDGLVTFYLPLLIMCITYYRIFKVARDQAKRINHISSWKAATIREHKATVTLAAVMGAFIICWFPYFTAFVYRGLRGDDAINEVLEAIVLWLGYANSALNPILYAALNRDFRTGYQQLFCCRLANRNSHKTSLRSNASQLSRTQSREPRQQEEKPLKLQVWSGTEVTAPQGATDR

Take `C/C(=C\n1c2c(c3cc(C)ccc31)CCN(C)C2C)c1ccccc1F` (stereo not shown) [Compound 166]: the inhibition at 1 µM in test [1] (setting [6]) was 90%; in test [1] (compound concentration 1 μM, read-out: Percentage inhibition of ligand binding to H2 receptor), 90%; in test [2] (setting [7]), 106%; in test [2] (compound concentration 1 μM, read-out: Percentage inhibition of ligand binding to Adrenergic α2B receptor) it was 106%; in test [3] (setting [8]) it was 95%; in test [3] (compound concentration 1 μM, read-out: Percentage inhibition of ligand binding to 5-HT6 receptor), 95%. The inhibition at 1 µM in test [4] (setting [9]) is 79%; in test [4] (compound concentration 1 μM, read-out: Percentage inhibition of ligand binding to H1 receptor) it was 79%; in test [5] (setting [10]), 102%; in test [5] (compound concentration 1 μM, read-out: Percentage inhibition of ligand binding to 5-HT2A receptor), 102%. Besides, the inhibition at 0.01 µM is 13% in test [3] (compound concentration 10 nM, read-out: Percentage inhibition of ligand binding to 5-HT6 receptor) and 15% in test [5] (compound concentration 10 nM, read-out: Percentage inhibition of ligand binding to 5-HT2A receptor). Besides, the inhibition at 0.03 µM in test [3] (compound concentration 0.03 μM, read-out: Percentage inhibition of ligand binding to 5-HT6 receptor) was found to be 16%; in test [5] (compound concentration 0.03 μM, read-out: Percentage inhibition of ligand binding to 5-HT2A receptor), 46%. The inhibition at 0.1 µM in test [3] (compound concentration 0.1 μM, read-out: Percentage inhibition of ligand binding to 5-HT6 receptor) was determined as 38%; in test [5] (compound concentration 0.1 μM, read-out: Percentage inhibition of ligand binding to 5-HT2A receptor), 74%. Moreover, the inhibition at 0.3 µM in test [3] (compound concentration 0.3 μM, read-out: Percentage inhibition of ligand binding to 5-HT6 receptor) was determined as 55%; in test [4] (compound concentration 0.3 μM, read-out: Percentage inhibition of ligand binding to H1 receptor), 23%; in test [5] (compound concentration 0.3 μM, read-out: Percentage inhibition of ligand binding to 5-HT2A receptor) it was 81%. The inhibition at 3 µM in test [4] (compound concentration 3 μM, read-out: Percentage inhibition of ligand binding to H1 receptor) worked out at 77%.
For `Cc1ccc2c(c1)c1c(n2CCC(=O)N2CCCCC2)CN(C)CC1` [Compound 43, 3-(1,2,3,4-tetrahydro-2,6-dimethylpyrido[3,4-b]indol-9-yl)-1-(piperidin-1-yl)propan-1-one], the inhibition at 1 µM was 6% in test [1] (setting [6]); -14% in test [2] (setting [7]); 3% in test [3] (setting [8]); 30% in test [4] (setting [9]); 69% in test [5] (setting [10]).
On to `CCC1c2c(c3cc(Cl)ccc3n2CC(C)(O)c2ccc(F)cc2)CCN1C` (stereo not shown) [Compound 79], for which the inhibition at 1 µM in test [1] (setting [6]) is 20%; in test [2] (setting [7]) it was 89%; in test [3] (setting [8]) it was 27%; in test [4] (setting [9]) it was 50%; in test [5] (setting [10]) it was 62%.
On to `COC(=O)Cn1c2c(c3cc(C)ccc31)CCN(C)C2` [Compound 21, methyl 2-(1,2,3,4-tetrahydro-2,6-dimethylpyrido[3,4-b]indol-9-yl)acetate], for which the inhibition at 1 µM in test [1] (setting [6]) is 2%; in test [2] (setting [7]) it was 11%; in test [3] (setting [8]) it was 6%; in test [4] (setting [9]), 3%; in test [5] (setting [10]) it was 4%.
For `CN1CCc2c(n(CC(=O)N(C)C)c3ccc(Cl)cc23)C1` [Compound 16, 2-(6-chloro-1,2,3,4-tetrahydro-2-methylpyrido[3,4-b]indol-9-yl)-N,N-dimethylacetamide] the same measures were 1%, -7%, 9%, 16% and 10%.
For `CCC1c2c(c3cc(C)ccc3n2C#Cc2ccc(Cl)cc2)CCN1C` (stereo not shown) [Compound 162, 9-((4-chlorophenyl)ethynyl)-1-ethyl-2,6-dimethyl-2,3,4,9-tetrahydro-1H-pyrido[3,4-b]indole] the same measures were 33%, 85%, 12%, 15% and 98%.
Regarding `C/C(=C/n1c2c(c3cc(Cl)ccc31)CCN(C)C2C)c1ccccc1F` (stereo not shown) [Compound 167], the inhibition at 1 µM in test [1] (setting [6]) stood at 51%; in test [2] (setting [7]), 94%; in test [3] (setting [8]) it was 55%; in test [4] (setting [9]) it was 64%; in test [5] (setting [10]), 88%.
Turning to `CN1CCc2c(n(CC(=O)Nc3ccc(F)cc3)c3ccc(Cl)cc23)C1` [Compound 15, 2-(6-chloro-1,2,3,4-tetrahydro-2-methylpyrido[3,4-b]indol-9-yl)-N-(4-fluorophenyl)acetamide], the inhibition at 1 µM in test [1] (setting [6]) was -3%; in test [2] (setting [7]) it was 8%; in test [3] (setting [8]) it was -2%; in test [4] (setting [9]) it was 0%; in test [5] (setting [10]), 6%.
As for `C/C(=C\n1c2c(c3cc(Cl)ccc31)CCN(C)C2C)c1ccccc1F` (stereo not shown) [Compound 168], the inhibition at 1 µM in test [1] (setting [6]) is 64%; in test [2] (setting [7]), 82%; in test [3] (setting [8]) it was 71%; in test [4] (setting [9]) it was 85%; in test [5] (setting [10]) it was 94%.
For `Cc1ccc(CCn2c3c(c4cc(Cl)ccc42)CCN(C)C3C)cn1` (stereo not shown) [Compound 80] the same measures were 18%, 100%, 23%, 66% and 56%.
Turning to `C/C(=C\n1c2c(c3cc(Cl)ccc31)CCN(C)C2C)c1ccc(Cl)cc1` (stereo not shown) [Compound 99, 6-chloro-9-(2-(4-chlorophenyl)prop-1-enyl)-1,2-dimethyl-2,3,4,9-tetrahydro-1H-pyrido[3,4-b]indole], the inhibition at 1 µM in test [1] (setting [6]) came to 62%; in test [2] (setting [7]), 77%; in test [3] (setting [8]) it was 69%; in test [4] (setting [9]), 65%; in test [5] (setting [10]) it was 86%.
`CC1c2c(c3cc(Cl)ccc3n2CCc2ccc(F)cc2)CCN1C` (stereo not shown) [Compound 81]: the inhibition at 1 µM in test [1] (setting [6]) was determined as 67%; in test [2] (setting [7]) it was 102%; in test [3] (setting [8]), 96%; in test [4] (setting [9]) it was 80%; in test [5] (setting [10]) it was 93%.
As for `CN1CCc2c(n(CCCC(=O)N3CCCCC3)c3ccc(Cl)cc23)C1` [Compound 44, 4-(6-chloro-1,2,3,4-tetrahydro-2-methylpyrido[3,4-b]indol-9-yl)-1-(piperidin-1-yl)butan-1-one], the inhibition at 1 µM turned out to be 9% in test [1] (setting [6]); 20% in test [2] (setting [7]); 12% in test [3] (setting [8]); 62% in test [4] (setting [9]); 73% in test [5] (setting [10]).
Consider `C/C(=C\n1c2c(c3cc(C)ccc31)CCN(C)C2)c1ccc(Cl)cc1` [Compound 97, 9-(2-(4-chlorophenyl)prop-1-enyl)-2,6-dimethyl-2,3,4,9-tetrahydro-1H-pyrido[3,4-b]indole], for which the inhibition at 1 µM in test [1] (setting [6]) was 89%; in test [2] (setting [7]), 96%; in test [3] (setting [8]) it was 72%; in test [4] (setting [9]), 20%; in test [5] (setting [10]), 97%.
